Experimental data from US9113629B2, “4-amino-6-(4-substituted-phenyl)-picolinates and 6-amino-2-(4-substituted-phenyl)-pyrimidine-4-carboxylates and their use as herbicides” (DOW AGROSCIENCES LLC, priority 2013, dated 2015).
Like-named read-outs stand apart in the source and are kept apart here.

Columns and labels:
[1] = test system: Key Broadleaf Weed and Crop Species; test: Post-emergent Test II herbicidal activity (Table 5); type: in vivo; settings: post-emergence, 336 h, post-emergent, 14 days after application; for pest or weed control at 70 g/ha: 70 g ai/ha; for pest or weed control at 140 g/ha: 140 g ai/ha
Procedure, shortened: (§1)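 Test species were raised 7–21 d under greenhouse conditions until reaching the first or second true leaf, sprayed with formulated compound at 187 L/ha, and kept subirrigated to avoid wash-off. Fourteen days later, damage was rated visually on a 0–100% scale against untreated plants.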

[2] = test system: Key Grass and Sedge Weeds as well as Grass Crops; test: Post-emergent Test II herbicidal activity (Table 6); type: in vivo; settings: post-emergence, 336 h; for pest or weed control at 70 g/ha: application rate 70 g ai/ha; for pest or weed control at 140 g/ha: application rate 140 g ai/ha
Procedure, shortened: as §1

[3] = ABUTH: velvetleaf (Abutilon theophrasti), read-out: Visual Growth Reduction (%) 14 Days After Application ABUTH
[4] = AMARE: redroot pigweed (Amaranthus retroflexus), read-out: Visual Growth Reduction (%) 14 Days After Application AMARE
[5] = BRSNN: oilseed-rape, canola (Brassica napus), read-out: Visual Growth Reduction (%) 14 Days After Application BRSNN
[6] = CHEAL: lambsquarters (Chenopodium album), read-out: Visual Growth Reduction (%) 14 Days After Application CHEAL
[7] = EPHHL: wild poinsettia (Euphorbia heterophylla), read-out: Visual Growth Reduction (%) 14 Days After Application EPHHL
[8] = HELAN: sunflower (Helianthus annuus), read-out: Visual Growth Reduction (%) 14 Days After Application HELAN
[9] = VIOTR: wild pansy (Viola tricolor), read-out: Visual Growth Reduction (%) 14 Days After Application VIOTR
[10] = Triticum aestivum, TRZSS (wheat), read-out: Visual Growth Reduction (%) 14 Days After Application, TRZSS
[11] = CYPES: yellow nutsedge (Cyperus esculentus), read-out: Visual Growth Reduction (%) 14 Days After Application, CYPES
[12] = DIGSA: crabgrass (Digitaria sanguinalis), read-out: Visual Growth Reduction (%) 14 Days After Application, DIGSA
[13] = ECHCG: barnyardgrass (Echinochloa crus-galli), read-out: Visual Growth Reduction (%) 14 Days After Application, ECHCG
[14] = ORYSA: rice (Oryza sativa), read-out: Visual Growth Reduction (%) 14 Days After Application, ORYSA
[15] = SETFA: giant foxtail (Setaria faberi), read-out: Visual Growth Reduction (%) 14 Days After Application, SETFA
[16] = SORVU: grain sorghum (Sorghum vulgare), read-out: Visual Growth Reduction (%) 14 Days After Application, SORVU
[17] = ZEAMX: maize, corn (Zea mays), read-out: Visual Growth Reduction (%) 14 Days After Application, ZEAMX

**Q.** What does the source list for C#Cc1ccc(-c2cc(N)c(Cl)c(C(=O)OC)n2)cc1 [Compound 126]?
**A.** pest or weed control at 70 g/ha [1, 3]: 95 to 100%; pest or weed control at 140 g/ha [1, 3]: 95 to 100%; pest or weed control at 70 g/ha [1, 4]: 95 to 100%; pest or weed control at 140 g/ha [1, 4]: 95 to 100%; pest or weed control at 70 g/ha [1, 5]: 75 to 84%; pest or weed control at 140 g/ha [1, 5]: 85 to 94%; pest or weed control at 70 g/ha [1, 6]: 95 to 100%; pest or weed control at 140 g/ha [1, 6]: 95 to 100%; pest or weed control at 70 g/ha [1, 7]: 95 to 100%; pest or weed control at 140 g/ha [1, 7]: 95 to 100%; pest or weed control at 70 g/ha [1, 8]: 85 to 94%; pest or weed control at 140 g/ha [1, 8]: 95 to 100%; pest or weed control at 70 g/ha [1, 9]: 0 to 29%; pest or weed control at 140 g/ha [1, 9]: 30 to 44%; pest or weed control at 70 g/ha [2, 10]: 0 to 29%; pest or weed control at 140 g/ha [2, 10]: 0 to 29%; pest or weed control at 70 g/ha [2, 11]: 60 to 74%; pest or weed control at 140 g/ha [2, 11]: 30 to 44%; pest or weed control at 70 g/ha [2, 12]: 75 to 84%; pest or weed control at 140 g/ha [2, 12]: 85 to 94%; pest or weed control at 70 g/ha [2, 13]: 95 to 100%; pest or weed control at 140 g/ha [2, 13]: 95 to 100%; pest or weed control at 70 g/ha [2, 14]: 0 to 29%; pest or weed control at 140 g/ha [2, 14]: 0 to 29%; pest or weed control at 70 g/ha [2, 15]: 0 to 29%; pest or weed control at 140 g/ha [2, 15]: 75 to 84%; pest or weed control at 70 g/ha [2, 16]: 75 to 84%; pest or weed control at 140 g/ha [2, 16]: 85 to 94%; pest or weed control at 70 g/ha [2, 17]: 0 to 29%; pest or weed control at 140 g/ha [2, 17]: 60 to 74%

**Q.** How did the pest or weed control at 70 g/ha [1, 3] turn out when COC(=O)c1nc(-c2cc(F)c(Br)cc2F)cc(N)c1Cl [Compound 127, methyl 4-amino-6-(4-bromo-2,5-difluorophenyl)-3-chloropicolinate] was run?
**A.** 95 to 100%

**Q.** And the pest or weed control at 140 g/ha [1, 3]?
**A.** 95 to 100%

**Q.** What about the pest or weed control at 70 g/ha [1, 4] of the same compound?
**A.** 95 to 100%

**Q.** And the pest or weed control at 140 g/ha [1, 4]?
**A.** 95 to 100%

**Q.** What about the pest or weed control at 70 g/ha [1, 5] of the same compound?
**A.** 85 to 94%

**Q.** And the pest or weed control at 140 g/ha [1, 5]?
**A.** 95 to 100%

**Q.** And the pest or weed control at 70 g/ha [1, 6]?
**A.** 95 to 100%

**Q.** And the pest or weed control at 140 g/ha [1, 6]?
**A.** 95 to 100%

**Q.** What about the pest or weed control at 70 g/ha [1, 7] of the same compound?
**A.** 95 to 100%

**Q.** What about the pest or weed control at 140 g/ha [1, 7] of the same compound?
**A.** 95 to 100%

**Q.** And the pest or weed control at 70 g/ha [1, 8]?
**A.** 85 to 94%

**Q.** And the pest or weed control at 140 g/ha [1, 8]?
**A.** 95 to 100%

**Q.** And the pest or weed control at 70 g/ha [1, 9]?
**A.** 95 to 100%

**Q.** What about the pest or weed control at 140 g/ha [1, 9] of the same compound?
**A.** 95 to 100%

**Q.** What about the pest or weed control at 70 g/ha [2, 10] of the same compound?
**A.** 60 to 74%

**Q.** What about the pest or weed control at 140 g/ha [2, 10] of the same compound?
**A.** 75 to 84%

**Q.** What about the pest or weed control at 70 g/ha [2, 11] of the same compound?
**A.** 95 to 100%

**Q.** What about the pest or weed control at 140 g/ha [2, 11] of the same compound?
**A.** 95 to 100%

**Q.** What about the pest or weed control at 70 g/ha [2, 12] of the same compound?
**A.** 85 to 94%

**Q.** And the pest or weed control at 140 g/ha [2, 12]?
**A.** 95 to 100%

**Q.** And the pest or weed control at 70 g/ha [2, 13]?
**A.** 95 to 100%

**Q.** What about the pest or weed control at 140 g/ha [2, 13] of the same compound?
**A.** 95 to 100%

**Q.** What about the pest or weed control at 70 g/ha [2, 14] of the same compound?
**A.** 0 to 29%

**Q.** What about the pest or weed control at 140 g/ha [2, 14] of the same compound?
**A.** 0 to 29%

**Q.** And the pest or weed control at 70 g/ha [2, 15]?
**A.** 95 to 100%

**Q.** And the pest or weed control at 140 g/ha [2, 15]?
**A.** 95 to 100%

**Q.** What about the pest or weed control at 70 g/ha [2, 16] of the same compound?
**A.** 95 to 100%

**Q.** And the pest or weed control at 140 g/ha [2, 16]?
**A.** 95 to 100%

**Q.** And the pest or weed control at 70 g/ha [2, 17]?
**A.** 85 to 94%

**Q.** What about the pest or weed control at 140 g/ha [2, 17] of the same compound?
**A.** 85 to 94%

**Q.** With Nc1cc(-c2cc(F)c(I)cc2F)nc(C(=O)O)c1Cl [Compound 131] as the compound, how does the pest or weed control at 70 g/ha [1, 3] read?
**A.** 95 to 100%

**Q.** What about the pest or weed control at 140 g/ha [1, 3] of the same compound?
**A.** 95 to 100%

**Q.** And the pest or weed control at 70 g/ha [1, 4]?
**A.** 95 to 100%

**Q.** And the pest or weed control at 140 g/ha [1, 4]?
**A.** 95 to 100%

**Q.** What about the pest or weed control at 70 g/ha [1, 5] of the same compound?
**A.** 95 to 100%

**Q.** What about the pest or weed control at 140 g/ha [1, 5] of the same compound?
**A.** 95 to 100%

**Q.** What about the pest or weed control at 70 g/ha [1, 6] of the same compound?
**A.** 95 to 100%

**Q.** And the pest or weed control at 140 g/ha [1, 6]?
**A.** 95 to 100%

**Q.** And the pest or weed control at 70 g/ha [1, 7]?
**A.** 95 to 100%

**Q.** And the pest or weed control at 140 g/ha [1, 7]?
**A.** 95 to 100%

**Q.** What about the pest or weed control at 70 g/ha [1, 8] of the same compound?
**A.** 85 to 94%

**Q.** What about the pest or weed control at 140 g/ha [1, 8] of the same compound?
**A.** 95 to 100%

**Q.** What about the pest or weed control at 70 g/ha [1, 9] of the same compound?
**A.** 95 to 100%

**Q.** What about the pest or weed control at 140 g/ha [1, 9] of the same compound?
**A.** 95 to 100%

**Q.** What about the pest or weed control at 70 g/ha [2, 10] of the same compound?
**A.** 60 to 74%

**Q.** And the pest or weed control at 140 g/ha [2, 10]?
**A.** 75 to 84%

**Q.** What about the pest or weed control at 70 g/ha [2, 11] of the same compound?
**A.** 85 to 94%

**Q.** What about the pest or weed control at 140 g/ha [2, 11] of the same compound?
**A.** 85 to 94%

**Q.** And the pest or weed control at 70 g/ha [2, 12]?
**A.** 75 to 84%

**Q.** What about the pest or weed control at 140 g/ha [2, 12] of the same compound?
**A.** 75 to 84%

**Q.** And the pest or weed control at 70 g/ha [2, 13]?
**A.** 95 to 100%

**Q.** What about the pest or weed control at 140 g/ha [2, 13] of the same compound?
**A.** 95 to 100%

**Q.** What about the pest or weed control at 70 g/ha [2, 14] of the same compound?
**A.** 0 to 29%

**Q.** And the pest or weed control at 140 g/ha [2, 14]?
**A.** 30 to 44%

**Q.** And the pest or weed control at 70 g/ha [2, 15]?
**A.** 95 to 100%

**Q.** And the pest or weed control at 140 g/ha [2, 15]?
**A.** 95 to 100%

**Q.** And the pest or weed control at 70 g/ha [2, 16]?
**A.** 60 to 74%

**Q.** And the pest or weed control at 140 g/ha [2, 16]?
**A.** 75 to 84%

**Q.** What about the pest or weed control at 70 g/ha [2, 17] of the same compound?
**A.** 85 to 94%

**Q.** What about the pest or weed control at 140 g/ha [2, 17] of the same compound?
**A.** 85 to 94%
